Common to all, as to type: protein assay
Experiment [1] addresses T1, Alpha glucosidase (Homo sapiens, UniProt O43451+P10253+P14410+Q2M2H8). The experiment in a line: Inhibition of Alpha-glucosidase (unknown origin).
Experiment [2] has as its target T1, Alpha glucosidase. The experiment is described as follows: Inhibition of Alpha-glucosidase (unknown origin) by Lineweaver-Burk plot analysis. The following applies: dose 4.0 µM.
Experiment [3] concerns the target T1, Alpha glucosidase. The experiment is described as follows: Competitive inhibition of Alpha-glucosidase (unknown origin) by Lineweaver-Burk plot analysis.

Consider 7 molecules from ChEMBL document CHEMBL5257102, “Enzymatic transformation of esculetin as a potent class of α-glucosidase inhibitors” (Bioorg Med Chem Lett, 2023).

On Alpha glucosidase [1], `O=c1ccc2c(Oc3cc4oc(=O)ccc4c(-c4c(O)c(O)c(-c5c(O)c(O)c(-c6c(O)c(O)cc7oc(=O)ccc67)c6ccc(=O)oc56)c5ccc(=O)oc45)c3O)c(O)c(O)cc2o1` came in with an IC50 of 0.7 µM. In addition, at Alpha glucosidase [2], the inhibition result is “Dose-Dependent Effect”. Moreover, the Ki at Alpha glucosidase [3] stood at 0.2 µM.
In the case of `O=c1ccc2c(-c3c(O)c(O)c(-c4c(O)c(O)cc5ccc(=O)oc45)c4oc(=O)ccc34)c(O)c(O)cc2o1`, the IC50 against Alpha glucosidase [1] came to 4.2 µM.
The same measure, in the same setting: to `O=c1ccc2cc(O)c(O)cc2o1` [ESCULETIN] belongs > 500 µM.
Regarding `O=c1ccc2c(-c3c(O)c(O)c(-c4c(O)c(O)cc5oc(=O)ccc45)c4oc(=O)ccc34)c(O)c(O)cc2o1`, at Alpha glucosidase [1], the IC50 amounted to 4.7 µM. This molecule also came in with a Ki at Alpha glucosidase [3] of 1.9 µM.
On Alpha glucosidase [1], `O=c1ccc2c(-c3c(O)c(O)cc4ccc(=O)oc34)c(O)c(O)cc2o1` displayed an IC50 of 17.6 µM. Further, the Ki at Alpha glucosidase [3] came to 10.1 µM.
As for `O=c1ccc2c(-c3c(O)c(O)c(-c4c(O)c(O)c(-c5c(O)c(O)cc6oc(=O)ccc56)c5oc(=O)ccc45)c4oc(=O)ccc34)c(O)c(O)cc2o1`, on Alpha glucosidase [1], the IC50 came to 2.3 µM. At Alpha glucosidase [3], the inhibition constant Ki was determined as 0.9 µM.
For `O=c1ccc2cc(O)c(O)c(-c3c(O)c(O)cc4ccc(=O)oc34)c2o1`, in that order: 6.4 µM and 3.4 µM.

The term IC50 denotes the concentration at which inhibition is half-maximal. A high value points to lower potency. The term Ki denotes a dissociation constant, usually derived from enzyme kinetics or from competition with a known ligand. Read a low Ki as higher affinity.
